This note sets out measurements from PMC8277928, “Influence of Terminal Functionality on the Crystal Packing Behaviour and Cytotoxicity of Aromatic Oligoamides” (Frontiers in Chemistry, 2021).

Like-named read-outs stand apart in the source and are kept apart here.

Data set [1] concerns A2780 cisplatin-sensitive ovarian carcinoma cells. Put plainly: MTT cytotoxicity (chemosensitivity) assay, 96 h. In kind it is cell-based, human. The note with it: for IC50: 96 h incubation, MTT, 37°C, 5% CO2, read-out: IC50 values (μM) ± SD, A2780; for Selectivity Index (SI), A2780 compared to PNT-2: IC50 PNT-2 divided by IC50 A2780, * = minimum SI value. How it is done: (§1) The IC50 values were obtained via the MTT assay after a 96 h incubation period of each compound with the cells at 37°C and 5% CO2 (Table 2; Figure 6). […]
(§2) In vitro chemosensitivity assays were performed against human ovarian carcinoma (A2780), cisplatin-resistant human ovarian carcinoma (A2780cisR) and human breast adenocarcinomas (MCF-7 and MDA-MB-231). Additionally, growth inhibitory effects were also tested against non-malignant prostate cell line immortalised with SV40, PNT-2. All cell lines were provided by the Institute of Cancer Therapeutics, University of Bradford and were routinely maintained as monolayer cultures in RPMI 1640 media supplemented with 10% foetal calf serum, sodium pyruvate (1 mM) and L-glutamine (2 mM). All assays were conducted in 96-well round bottom plates, with control lanes for media and 100% cell growth. Cell concentrations of 1 x 10^4 cells/mL were used, and 100 µL (or 100 µL media in control lane 1) of cell suspension were incubated for 24 h at 37 °C and 5% CO2 prior to drug exposure.
(§3) 100 mM stock solutions, which were further diluted with complete me dia to provide a range of final concentrations. After 24 h, 100 μL of the drug/media solutions were added to the plates (columns 3-12 drug concentrations, with 100 µL media in the control lanes), and then the plates incubated for 96 h at 37°C and 5% CO2. All drug solutions were added to the plates so that the final DMSO concentrations were <0.1% (v/v) in all cases. After 96 h, 3-(4,5-dimethylthiazol-2-yl)-2,5-diphenyltetrazolium bromide (MTT) (20 µL, 5 mg/mL) was added to each well and incubated for 3 h at 37 °C and 5% CO2. All solutions were then removed via pipette, 150 μL DMSO added to each well and the formazan crystals mixed thoroughly. A Thermo Scientific Multiscan EX microplate photometer was used to measure the absorbance of each well at 540 nm. Percentage cell viabilities were determined on a logarithmic scale, and the half maximal inhibitory concentration (IC50) determined from a plot of % cell survival versus concentration (µM). Each of the experiments was performed as duplicate technical repeats and triplicate experimental repeats, with mean values as the IC50 ± Standard Deviation (SD).

The test system of data set [2] is A2780cisR cisplatin-resistant ovarian carcinoma cells. Put plainly: MTT cytotoxicity (chemosensitivity) assay, 96 h. In kind it is cell-based, human. The note with it: for IC50: 96 h incubation, MTT, 37°C, 5% CO2, read-out: IC50 values (μM) ± SD, A2780cisR; for Selectivity Index (SI), A2780cisR compared to PNT-2: IC50 PNT-2 divided by IC50 A2780cisR, * = minimum SI value. How it is done:
as §1, §2, §3

The subject of data set [3] is MCF-7 breast adenocarcinoma cells. Put plainly: MTT cytotoxicity (chemosensitivity) assay, 96 h. The data set is classed as cell-based, human. The note with it: for IC50: 96 h incubation, MTT, 37°C, 5% CO2, read-out: IC50 values (μM) ± SD, MCF-7; for Selectivity Index (SI), MCF-7 compared to PNT-2: IC50 PNT-2 divided by IC50 MCF-7, * = minimum SI value. As for the experimental part: as §1, §2, §3

Data set [4] concerns MDA-MB-231 breast adenocarcinoma cells. The data set can be described thus: MTT cytotoxicity (chemosensitivity) assay, 96 h. In kind it is cell-based, human. The note with it: for IC50: 96 h incubation, MTT, 37°C, 5% CO2, read-out: IC50 values (μM) ± SD, MDA-MB-231; for Selectivity Index (SI), MDA-MB-231 compared to PNT-2: IC50 PNT-2 divided by IC50 MDA-MB-231, * = minimum SI value. As for the experimental part:
as §1, §2, §3

Data set [5] concerns PNT-2 non-malignant prostate cell line (immortalized with SV40). Put plainly: MTT cytotoxicity (chemosensitivity) assay, 96 h, non-malignant cells. In kind it is cell-based, human. The following applies: 37°C, 5% CO2, read-out: IC50 values (μM) ± SD, PNT-2. How it is done:
A SI value >1 indicates increased selectivity for the cancerous cell line over the non-malignant one, whilst a SI value <1 indicates the inverse (i.e., increased selectivity for the non-malignant cell line over the cancerous one). […]
as §2, §3

Data set [6] deals with A2780, A2780cisR, MCF-7 and MDA-MB-231 cells. Put plainly: MTT cytotoxicity assay, 96 h, range over all cancer cell lines. The following applies: Homo sapiens, read-out: IC50 values against all cell lines (range). In kind it is cell-based. As for the experimental part:
as §1
as §2, with “Cell concentrations of 1 x 10^4 cells/mL were used, and 100 µL (or 100 µL media in control lane 1) of cell suspension were incubated for 24 h at 37 °C and 5% CO2 prior to drug exposure.” left out
100 mM stock solutions, which were further diluted with complete me dia to provide a range of final concentrations. […] A Thermo Scientific Multiscan EX microplate photometer was used to measure the absorbance of each well at 540 nm. Percentage cell viabilities were determined on a logarithmic scale, and the half maximal inhibitory concentration (IC50) determined from a plot of % cell survival versus concentration (µM). […]
(In general: Tetrazolium dyes change colour on reduction, which living cells bring about.)

[7] abbreviates: Homo sapiens, PNT2, 96 h incubation.

Turning to `[NH2][Pt]([NH2])([Cl])[Cl]` [CDDP, cisplatin, reference compound], the IC50 in data set [1] was determined as 1.3 ± 0.1 µM; in data set [2] it was 14 ± 1 µM; in data set [3], 1.5 ± 0.2 µM; in data set [4] it was 3.07 ± 0.02 µM; in data set [5] (96 h incubation), 8.5 ± 0.4 µM. In addition, the “Selectivity Index (SI), A2780cisR compared to PNT-2” value (from here on “Selectivity Index (SI), A2780cisR”) in data set [2] is reported as 0.6. Further, the “Selectivity Index (SI), MCF-7 compared to PNT-2” value in data set [3] is 5.6. Further, the “Selectivity Index (SI), MDA-MB-231 compared to PNT-2” value in data set [4] was 2.8.

For `N.N.O=C([O-])C1(C(=O)[O-])CCC1.[Pt+2]` [CARB, carboplatin, reference compound], the IC50 in data set [1] is 17 ± 1 µM; in data set [2], above 100 µM; in data set [3] it was above 100 µM; in data set [4], 33 ± 2 µM; in data set [5] (96 h incubation), 27 ± 2 µM. Also, in data set [2], the “Selectivity Index (SI), A2780cisR” value is above 0.3. Further, the “Selectivity Index (SI), MCF-7 compared to PNT-2” value in data set [3] was above 0.3. Besides, the “Selectivity Index (SI), MDA-MB-231 compared to PNT-2” value in data set [4] stood at 0.8.

For the molecule `Nc1ccccc1NC(=O)c1cccc(C(=O)Nc2ccccc2N)n1` [Compound 3], the “cytotoxicity in words, A2780” value in data set [1] (96 h MTT) is reported as “non-toxic”. Moreover, the IC50 in data set [1] (Homo sapiens, A2780) is above 100 µM; in data set [2] (Homo sapiens, A2780cisR) it was 61 ± 2 µM; in data set [3] (Homo sapiens, MCF7), above 100 µM; in data set [4] (Homo sapiens, MDA-MB-231), above 100 µM; in data set [5] (setting [7]), above 100 µM. Further, the “Selectivity Index (SI), A2780cisR” value in data set [2] is recorded as above 1.6.

Regarding `CC(=O)Nc1ccccc1NC(=O)c1cccc(C(=O)Nc2ccccc2NC(C)=O)n1` [Compound 1], the IC50 in data set [1] (Homo sapiens, A2780) is 77 ± 5 µM; in data set [2] (Homo sapiens, A2780cisR) it was above 100 µM; in data set [3] (Homo sapiens, MCF7), above 100 µM; in data set [4] (Homo sapiens, MDA-MB-231) it was 63 ± 4 µM; in data set [5] (setting [7]), above 100 µM; in data set [6], at least 63 µM. The “Selectivity Index (SI), A2780 compared to PNT-2” value in data set [1] is given as above 1.3. Besides, the “Selectivity Index (SI), MDA-MB-231 compared to PNT-2” value in data set [4] is listed as above 1.6.

On to `O=C1[O][Pt]2([NH][C@@H]3CCCC[C@H]3[NH]2)[O]C1=O` [OXA, oxaliplatin, reference compound], for which, in data set [1], the IC50 came to 0.505 ± 0.002 µM and the “Selectivity Index (SI), A2780 compared to PNT-2” value is 2.6. In data set [2], the half-maximal inhibitory concentration (IC50) is 2.09 ± 0.03 µM and the “Selectivity Index (SI), A2780cisR” value came out at 0.6. In addition, in data set [3], the IC50 was 2.6 ± 0.2 µM and the “Selectivity Index (SI), MCF-7 compared to PNT-2” value was determined as 0.5. Further, in data set [4], the IC50 is 2.5 ± 0.6 µM and the “Selectivity Index (SI), MDA-MB-231 compared to PNT-2” value is 0.5. The IC50 in data set [5] (96 h incubation) was found to be 1.3 ± 0.2 µM.

For the molecule `CC(C)(C)OC(=O)Nc1ccccc1NC(=O)c1cccc(C(=O)Nc2ccccc2NC(=O)OC(C)(C)C)n1` [Compound 2], the IC50 is 24 ± 0.9 µM in data set [1] (Homo sapiens, A2780); above 100 µM in data set [2] (Homo sapiens, A2780cisR); 84 ± 3 µM in data set [3] (Homo sapiens, MCF7); 69 ± 3 µM in data set [4] (Homo sapiens, MDA-MB-231); above 100 µM in data set [5] (setting [7]). In addition, the “Selectivity Index (SI), A2780 compared to PNT-2” value in data set [1] is listed as above 4.2. Besides, the “cytotoxicity in words, A2780cisR” value in data set [2] (96 h MTT) is reported as “moderate to non-cytotoxic”. The “cytotoxicity in words, MCF-7” value in data set [3] (96 h MTT) is on record as “moderate to non-cytotoxic”. The “Selectivity Index (SI), MCF-7 compared to PNT-2” value in data set [3] was above 1.2. Besides, the “cytotoxicity in words, MDA-MB-231” value in data set [4] (96 h MTT) was “moderate to non-cytotoxic”. Also, in data set [4], the “Selectivity Index (SI), MDA-MB-231 compared to PNT-2” value was above 1.4.

As a reminder, the IC50 is the concentration that inhibits the measured activity by half.
